From PubChem BioAssay AID248 (DTP/NCI, 2004)
Inconclusive results and toxic doses are left out.

System: L1210 leukemia ip in BDF1 mice, survival T/C
Experiment: NCI In Vivo Anticancer Drug Screen. Data for tumor model L1210 Leukemia (intraperitoneal) in B6D2F1 (BDF1) mice
Settings: higher = longer survival
Method in brief: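 Transplanted-tumor mice were given test agent; controls received vehicle only. Survival readings from the two groups were divided (treated over control).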

[1] = endpoint: mean survival time, dose: 25.0 mg/kg/injection, schedule: Q01DX009 (ip), vehicle: Klucel (hydroxypropylcellulose) (HPC)
[2] = endpoint: mean survival time, dose: 100.0 mg/kg/injection, schedule: Q01DX001 (ip), vehicle: carboxymethylcellulose (CMC)
[3] = endpoint: mean survival time, dose: 400.0 mg/kg/injection, schedule: Q01DX001 (ip), vehicle: carboxymethylcellulose (CMC)
[4] = endpoint: mean survival time, dose: 100.0 mg/kg/injection, schedule: Q01DX009 (ip), vehicle: saline
[5] = endpoint: mean survival time, dose: 100.0 mg/kg/injection, schedule: Q04DX003 (ip), vehicle: saline
[6] = endpoint: mean survival time, dose: 200.0 mg/kg/injection, schedule: Q01DX009 (ip), vehicle: saline
[7] = endpoint: mean survival time, dose: 200.0 mg/kg/injection, schedule: Q04DX003 (ip), vehicle: saline
[8] = endpoint: mean survival time, dose: 400.0 mg/kg/injection, schedule: Q01DX009 (ip), vehicle: saline
[9] = endpoint: mean survival time, dose: 400.0 mg/kg/injection, schedule: Q04DX003 (ip), vehicle: saline
[10] = endpoint: mean survival time, dose: 100.0 mg/kg/injection, schedule: Q01DX009 (ip), vehicle: Klucel (hydroxypropylcellulose) (HPC)
[11] = endpoint: mean survival time, dose: 100.0 mg/kg/injection, schedule: Q01DX009 (ip), vehicle: saline with Tween-80
[12] = endpoint: mean survival time, dose: 200.0 mg/kg/injection, schedule: Q01DX009 (ip), vehicle: saline with Tween-80
[13] = endpoint: mean survival time, dose: 400.0 mg/kg/injection, schedule: Q01DX009 (ip), vehicle: saline with Tween-80

SMILES: CCN(CC)CCCN=C(N)CCl
- T/C (endpoint: mean survival time, dose: 12.5 mg/kg/injection, schedule: Q01DX009 (ip), vehicle: Klucel (hydroxypropylcellulose) (HPC)): 96 % of control
- T/C [1]: 96 % of control
- T/C (endpoint: mean survival time, dose: 25.0 mg/kg/injection, schedule: Q04DX002 (ip), vehicle: Klucel (hydroxypropylcellulose) (HPC)): 114 % of control
- T/C (endpoint: mean survival time, dose: 50.0 mg/kg/injection, schedule: Q04DX002 (ip), vehicle: Klucel (hydroxypropylcellulose) (HPC)): 107 % of control
- T/C (endpoint: mean survival time, dose: 100.0 mg/kg/injection, schedule: Q04DX002 (ip), vehicle: Klucel (hydroxypropylcellulose) (HPC)): 95 % of control

SMILES: CCCCC(=O)N1CCCC1
- T/C (endpoint: mean survival time, dose: 100.0 mg/kg/injection, schedule: Q04DX002 (ip), vehicle: saline): 96 % of control
- T/C (endpoint: mean survival time, dose: 200.0 mg/kg/injection, schedule: Q04DX002 (ip), vehicle: saline): 92 % of control
- T/C (endpoint: mean survival time, dose: 400.0 mg/kg/injection, schedule: Q04DX002 (ip), vehicle: saline): 111 % of control

SMILES: Cc1c2c(c(C)c3c4c(oc13)CCCC4)C=NCC2
- T/C [2]: 95 % of control
- T/C (endpoint: mean survival time, dose: 200.0 mg/kg/injection, schedule: Q01DX001 (ip), vehicle: carboxymethylcellulose (CMC)): 92 % of control
- T/C [3]: 92 % of control

SMILES: CC(C)C1CC=CCC12C(=O)NC(=O)NC2=O (centres undefined)
- T/C (endpoint: mean survival time, dose: 75.0 mg/kg/injection, schedule: Q01DX001 (ip), vehicle: other): 104 % of control
- T/C (endpoint: mean survival time, dose: 150.0 mg/kg/injection, schedule: Q01DX001 (ip), vehicle: other): 97 % of control
- T/C (endpoint: mean survival time, dose: 300.0 mg/kg/injection, schedule: Q01DX001 (ip), vehicle: other): 93 % of control

SMILES: CCCCNC(=O)NNC(=O)CCCC(=O)NNC(=O)NCCCC
- T/C (endpoint: mean survival time, dose: 50.0 mg/kg/injection, schedule: Q01DX001 (ip), vehicle: saline): 100 % of control
- T/C (endpoint: mean survival time, dose: 100.0 mg/kg/injection, schedule: Q01DX001 (ip), vehicle: saline): 93 % of control
- T/C (endpoint: mean survival time, dose: 200.0 mg/kg/injection, schedule: Q01DX001 (ip), vehicle: saline): 100 % of control

SMILES: Cc1ncc(CO)c(Cc2ccccc2N(C)C)c1O
- T/C (endpoint: mean survival time, dose: 100.0 mg/kg/injection, schedule: Q04DX002 (ip), vehicle: saline with Tween-80): 92 % of control
- T/C (endpoint: mean survival time, dose: 200.0 mg/kg/injection, schedule: Q04DX002 (ip), vehicle: saline with Tween-80): 95 % of control

SMILES: O=C(N/N=C/c1ccc(Cl)cc1)C(c1ccccc1)N1CCCCC1 (centres undefined)
- T/C (endpoint: mean survival time, dose: 100.0 mg/kg/injection, schedule: Q01DX001 (ip), vehicle: other): 96 % of control
- T/C (endpoint: mean survival time, dose: 200.0 mg/kg/injection, schedule: Q01DX001 (ip), vehicle: other): 87 % of control
- T/C (endpoint: mean survival time, dose: 400.0 mg/kg/injection, schedule: Q01DX001 (ip), vehicle: other): 93 % of control

SMILES: COc1ccc(-c2c(CO)cc(OC)c(OC)c2OC)c(CO)c1
- T/C (endpoint: mean survival time, dose: 75.0 mg/kg/injection, schedule: Q01DX001 (ip), vehicle: saline): 99 % of control
- T/C (endpoint: mean survival time, dose: 150.0 mg/kg/injection, schedule: Q01DX001 (ip), vehicle: saline): 99 % of control
- T/C (endpoint: mean survival time, dose: 300.0 mg/kg/injection, schedule: Q01DX001 (ip), vehicle: saline): 92 % of control

SMILES: CC(C)C1NC(=O)NC1=O (centres undefined)
- T/C [4]: 98 % of control
- T/C [5]: 103 % of control
- T/C [6]: 105 % of control
- T/C [7]: 101 % of control
- T/C [8]: 103 % of control
- T/C [9]: 97 % of control

SMILES: O=C(Nc1cccc([N+](=O)[O-])c1)Nc1ccccc1C(F)(F)F
- T/C [10]: 94 % of control
- T/C (endpoint: mean survival time, dose: 200.0 mg/kg/injection, schedule: Q01DX009 (ip), vehicle: Klucel (hydroxypropylcellulose) (HPC)): 91 % of control
- T/C (endpoint: mean survival time, dose: 400.0 mg/kg/injection, schedule: Q01DX009 (ip), vehicle: Klucel (hydroxypropylcellulose) (HPC)): 93 % of control

SMILES: CC(C(=O)c1ccccc1)S(=O)(=O)O (centres undefined)
- T/C [5]: 102 % of control
- T/C [7]: 94 % of control
- T/C [9]: 96 % of control

SMILES: Cc1ccc(-n2c(O)c(N=Nc3ccc(Cl)cc3)c(=O)n(-c3ccccc3)c2=S)cc1
- T/C (endpoint: mean survival time, dose: 37.5 mg/kg/injection, schedule: Q01DX001 (ip), vehicle: Klucel (hydroxypropylcellulose) (HPC)): 96 % of control
- T/C (endpoint: mean survival time, dose: 75.0 mg/kg/injection, schedule: Q01DX001 (ip), vehicle: Klucel (hydroxypropylcellulose) (HPC)): 92 % of control
- T/C (endpoint: mean survival time, dose: 150.0 mg/kg/injection, schedule: Q01DX001 (ip), vehicle: Klucel (hydroxypropylcellulose) (HPC)): 102 % of control

SMILES: O=[N+]([O-])c1ccc(-c2cccc3ccccc23)c([N+](=O)[O-])c1
- T/C [2]: 96 % of control
- T/C [3]: 91 % of control

SMILES: CCCC(NC(=O)C(C)Br)C(=O)O (centres undefined)
- T/C [11]: 88 % of control
- T/C [12]: 98 % of control
- T/C [13]: 95 % of control

SMILES: c1ccc(P(CC[As](c2ccccc2)c2ccccc2)CC[As](c2ccccc2)c2ccccc2)cc1
- T/C (endpoint: mean survival time, dose: 100.0 mg/kg/injection, schedule: Q04DX003 (ip), vehicle: Klucel (hydroxypropylcellulose) (HPC)): 93 % of control
- T/C (endpoint: mean survival time, dose: 200.0 mg/kg/injection, schedule: Q04DX003 (ip), vehicle: Klucel (hydroxypropylcellulose) (HPC)): 93 % of control
- T/C (endpoint: mean survival time, dose: 400.0 mg/kg/injection, schedule: Q04DX003 (ip), vehicle: Klucel (hydroxypropylcellulose) (HPC)): 96 % of control

SMILES: CC(C)c1ccc(/C=C/C(=O)c2ccc([N+](=O)[O-])cc2)cc1
- T/C (endpoint: mean survival time, dose: 100.0 mg/kg/injection, schedule: Q04DX002 (ip), vehicle: gum acacia): 98 % of control
- T/C (endpoint: mean survival time, dose: 200.0 mg/kg/injection, schedule: Q04DX002 (ip), vehicle: gum acacia): 92 % of control
- T/C (endpoint: mean survival time, dose: 400.0 mg/kg/injection, schedule: Q04DX002 (ip), vehicle: gum acacia): 95 % of control

SMILES: COc1cc2c(cc1O)/C(=N/O)CCCC2
- T/C (endpoint: mean survival time, dose: 50.0 mg/kg/injection, schedule: Q01DX009 (ip), vehicle: saline with Tween-80): 102 % of control
- T/C [11]: 102 % of control
- T/C [12]: 106 % of control
- T/C [13]: 104 % of control

SMILES: C[S+]1CCSCC1
- T/C (endpoint: mean survival time, dose: 25.0 mg/kg/injection, schedule: Q04DX003 (ip), vehicle: saline): 90 % of control
- T/C (endpoint: mean survival time, dose: 50.0 mg/kg/injection, schedule: Q04DX003 (ip), vehicle: saline): 87 % of control
- T/C [5]: 117 % of control

SMILES: CCNc1ccc(/C=C2\C=Cc3ccccc32)cc1
- T/C [1]: 96 % of control
- T/C (endpoint: mean survival time, dose: 50.0 mg/kg/injection, schedule: Q01DX009 (ip), vehicle: Klucel (hydroxypropylcellulose) (HPC)): 102 % of control
- T/C (endpoint: mean survival time, dose: 75.0 mg/kg/injection, schedule: Q01DX001 (ip), vehicle: olive oil, sesame oil, peanut oil): 103 % of control
- T/C [10]: 96 % of control
- T/C (endpoint: mean survival time, dose: 150.0 mg/kg/injection, schedule: Q01DX001 (ip), vehicle: olive oil, sesame oil, peanut oil): 108 % of control

SMILES: COC1C(O)C(C)OC(OC2C(Oc3cccc4c(O)c5c(=O)oc6ccc(C)c7c(=O)oc(c34)c5c67)OC(C)C(O)C2O)C1O (centres undefined)
- T/C (endpoint: mean survival time, dose: 1.25 mg/kg/injection, schedule: Q01DX009 (ip), vehicle: saline with Tween-80): 97 % of control
- T/C (endpoint: mean survival time, dose: 2.5 mg/kg/injection, schedule: Q01DX009 (ip), vehicle: saline with Tween-80): 123 % of control
- T/C (endpoint: mean survival time, dose: 5.0 mg/kg/injection, schedule: Q01DX009 (ip), vehicle: saline with Tween-80): 115 % of control
- T/C (endpoint: mean survival time, dose: 12.5 mg/kg/injection, schedule: Q01DX009 (ip), vehicle: carboxymethylcellulose (CMC)): 108 % of control
- T/C (endpoint: mean survival time, dose: 20.0 mg/kg/injection, schedule: Q01DX009 (ip), vehicle: saline with Tween-80): 166 % of control
- T/C (endpoint: mean survival time, dose: 25.0 mg/kg/injection, schedule: Q01DX009 (ip), vehicle: carboxymethylcellulose (CMC)): 108 % of control
- T/C (endpoint: mean survival time, dose: 50.0 mg/kg/injection, schedule: Q01DX009 (ip), vehicle: carboxymethylcellulose (CMC)): 117 % of control
- T/C [11]: 121 % of control
- T/C (endpoint: median survival time, dose: 8.0 mg/kg/injection, schedule: Q04DX003 (ip), vehicle: saline with Tween-80): 106 % of control
- T/C (endpoint: median survival time, dose: 16.0 mg/kg/injection, schedule: Q04DX003 (ip), vehicle: saline with Tween-80): 110 % of control
- T/C (endpoint: median survival time, dose: 32.0 mg/kg/injection, schedule: Q04DX003 (ip), vehicle: saline with Tween-80): 114 % of control
- T/C (endpoint: median survival time, dose: 64.0 mg/kg/injection, schedule: Q04DX003 (ip), vehicle: saline with Tween-80): 114 % of control
- T/C (endpoint: median survival time, dose: 128.0 mg/kg/injection, schedule: Q04DX003 (ip), vehicle: saline with Tween-80): 110 % of control

SMILES: O=Nc1ccc(O)c(Cl)c1
- T/C (endpoint: mean survival time, dose: 100.0 mg/kg/injection, schedule: Q01DX001 (ip), vehicle: Klucel (hydroxypropylcellulose) (HPC)): 95 % of control
- T/C (endpoint: mean survival time, dose: 200.0 mg/kg/injection, schedule: Q01DX001 (ip), vehicle: Klucel (hydroxypropylcellulose) (HPC)): 98 % of control

SMILES: COc1ccccc1C(C#N)N1CCCN(C(C#N)c2ccccc2OC)C1c1cc(Cl)cc(Cl)c1O (centres undefined)
- T/C [4]: 103 % of control
- T/C [5]: 112 % of control
- T/C [6]: 88 % of control
- T/C [7]: 97 % of control
- T/C [8]: 90 % of control
- T/C [9]: 97 % of control
